Data taken from publication PMC8225959, “Clickable Radiocomplexes With Trivalent Radiometals for Cancer Theranostics: In vitro and in vivo Studies” (Frontiers in Medicine, 2021).
One block for each compound: values may come before it.

Legend:
[1] = Biodistribution of [111In]In-radiocomplexes in healthy mice; type: in vivo
Experimental: We performed a biodistribution study of the four [^111In]In-radiocomplexes in healthy mice to determine the clearance rate from systemic blood circulation and the tissue/organ distribution over time. […] The urinary tract was identified as the main excretory pathway since the highest % I.D./g values were found in the kidneys for all the radiocomplexes, associated to rapid radioactivity excretion both at 15 min and 1 h p.i. […] page 9: from whole animal body. Blood samples were taken by cardiac puncture at sacrifice. […] The animals were kept under […] volume of approximate 390 ± 190 mm3. […] […] carried out on groups of 8 mice (n = 4). […] The animals were weighed and dissected.

[2] = In vivo stability: HPLC analysis of urine of injected mice; settings: mouse urine, 1 h p.i.
Experimental: To assess the in vivo stability of the radiocomplexes, samples of blood and urine were collected from the mice injected with the compounds and analyzed by HPLC.
Blood samples from mice injected with the tested radiocomplexes, collected at sacrifice time, were
centrifuged, the serum separated and treated with ethanol (1:2 proportion) to precipitate the proteins
and the supernatant was analyzed by HPLC for stability evaluation. The urine samples were centrifuged
at 3000 rpm for 10 min and the supernatant was also analyzed by HPLC.

[3] = In vitro stability of [111In]In-radiocomplexes in cell culture media, human serum and PBS at 37 °C (HPLC); type: in vitro ADME; settings: for stability in PBS: 24 h at 37°C; for level of degradation in CCM / stability in CCM: cell culture media; for level of degradation in CCM / stability in CCM / stability in HS / compound degraded in HS: 37°C; for level of degradation in CCM: after 24 h; for stability in CCM: first 4 h of incubation; for stability in HS / compound degraded in HS: human serum; for compound degraded in HS: after 4 h of incubation
Experimental: (§1) Given the limited effect of the pegylated linker on the plasmatic half-life, we focused our successive in vitro stability studies and lipophilicity measurements on the two non-pegylated derivatives [^111In]In-DOTA-Tz and [^111In]In-DOTAGA-Tz. The lipophilicity was evaluated by determination of their partition coefficient log Po/w using the shake-flask method. […] In HS the stability was very good up to 2 h of incubation, but after 4 h of incubation, the degradation started to be quite important with 50 and 30% of the compound degraded for [^111In]In-DOTA-Tz and [^111In]In-DOTAGA-Tz, respectively. […] Taken together, excellent stability of the two [^111In]In-radiocomplexes was observed both in CCM and HS at 37°C for incubation times up to 2 h.
[111In]In-Radiocomplexes: In vitro and in vivo stability
radiolabelled compound dissolved in different media. For the evaluation of the stability in PBS, Cell
times the volume of the desired medium.
The radiocomplexes incubated in Human
The urine samples were centrifuged
during six days by ITLC analysis.

PC3 xenografts = test: In vivo click (pre-targeting) biodistribution of [111In]In-DOTA-Tz in PC3-xenografts bearing mice pretargeted with TCO-PEG4-AR; design: Biodistribution: Blood: dose or concentration left out as unconfirmed; settings: 1 h p.i.
Experimental: from whole animal body. Blood samples were taken by cardiac puncture at sacrifice. Tissue samples
Biodistribution in PC3 bearing mice
Membrane Matrix (BD Sciences) under anaesthesia with 2% isoflurane. The animals were kept under
volume of approximate 390 ± 190 mm3. Animals were allocated into treatment groups using a complete
carried out on groups of 8 mice (n = 4).
At appropriate time points (15 min,
Immediately after injection,
DOTA-Tz (0.1mL, 50 – 75 µCi µCi).
assumed to be due to total excretion. The animals were weighed and dissected. Then, tissues of interest
radioactivity and weighted.

[4] = Lipophilicity, octanol-water partition coefficient by shake-flask method; type: physicochemical; settings: 1-octanol / PBS pH 7.4
Experimental: as §1, with “h. […]” for “h.”
Lipophilicity Determination
After phase separation, aliquots

[5] = In Vivo Click reaction: PC3 xenograft mice pretargeted with TCO-PEG4-AR (4 h prior administration, 1 nM)
[6] = In Vivo Click reaction: PC3 xenograft mice pretargeted with TCO-PEG4-AR (4 h prior administration, 1 nM), listed as [^111In]In-DOTA-Tz
[7] = in vivo click chemistry, pretargeted with TCO-PEG4-AR

- Biodistribution: Blood ([1]; 15 min p.i.): 3.1 ± 0.4 % I.D./g
- Biodistribution: Bone ([1]; 15 min p.i.): 0.78 ± 0.08 % I.D./g
- Biodistribution: Heart ([1]; 15 min p.i.): 1.0 ± 0.2 % I.D./g
- Biodistribution: Intestine ([1]; 15 min p.i.): 0.32 ± 0.05 % I.D./g
- Biodistribution: Kidney ([1]; 15 min p.i.): 5.8 ± 1.3 % I.D./g
- Biodistribution: Liver ([1]; 15 min p.i.): 1.1 ± 0.2 % I.D./g
- Biodistribution: Lung ([1]; 15 min p.i.): 1.6 ± 0.3 % I.D./g
- Biodistribution: Muscle ([1]; 15 min p.i.): 0.9 ± 0.2 % I.D./g
- Biodistribution: Pancreas ([1]; 15 min p.i.): 0.53 ± 0.07 % I.D./g
- Biodistribution: Spleen ([1]; 15 min p.i.): 0.66 ± 0.28 % I.D./g
- Biodistribution: Stomach ([1]; 15 min p.i.): 0.5 ± 0.3 % I.D./g
- Excretion ([1]; 15 min p.i.): 65.3 ± 5.4 % I.D.
- Biodistribution: Blood ([1]; 1 h p.i.): 0.44 ± 0.07 % I.D./g
- Biodistribution: Bone ([1]; 1 h p.i.): 0.11 ± 0.01 % I.D./g
- Biodistribution: Heart ([1]; 1 h p.i.): 0.15 ± 0.08 % I.D./g
- Biodistribution: Intestine ([1]; 1 h p.i.): 0.05 ± 0.01 % I.D./g
- Biodistribution: Kidney ([1]; 1 h p.i.): 1.9 ± 0.3 % I.D./g
- Biodistribution: Liver ([1]; 1 h p.i.): 0.70 ± 0.30 % I.D./g
- Biodistribution: Lung ([1]; 1 h p.i.): 0.36 ± 0.04 % I.D./g
- Biodistribution: Muscle ([1]; 1 h p.i.): 0.10 ± 0.02 % I.D./g
- Biodistribution: Pancreas ([1]; 1 h p.i.): 0.09 ± 0.01 % I.D./g
- Biodistribution: Spleen ([1]; 1 h p.i.): 0.18 ± 0.04 % I.D./g
- Biodistribution: Stomach ([1]; 1 h p.i.): 0.09 ± 0.02 % I.D./g
- Excretion ([1]; 1 h p.i.): 93.6 ± 0.8 % I.D.
- Excretion ([1]; 1 h p.i., listed as [^111In]In-DOTA-PEG-Tz): above 90 % I.D.
- in vivo stability / metabolization (urine HPLC) [2]: overall low degree of metabolization
Compound: O=C([O-])CN1CCN(CC(=O)[O-])CCN(CC(=O)NCCOCCOCCOCCOCCOCCOCCOCCOCCOCCOCCOCCNC(=O)CCCC(=O)NCc2ccc(-c3nncnn3)cc2)CCN(CC(=O)[O-])CC1.[111In+3] [[111In]In-DOTA-PEG-Tz]

- stability in PBS [3]: > 85%
- level of degradation in CCM [3]: 70%
- stability in CCM [3]: very good stability
- stability in HS ([3]; 24 h of incubation): almost completely degraded
- compound degraded in HS [3]: 50%
- stability in HS ([3]; up to 2 h of incubation): very good
- Biodistribution: Blood ([1]; 15 min p.i.): 2.5 ± 1.4 % I.D./g
- Biodistribution: Bone ([1]; 15 min p.i.): 1.0 ± 0.7 % I.D./g
- Biodistribution: Heart ([1]; 15 min p.i.): 0.8 ± 0.5 % I.D./g
- Biodistribution: Intestine ([1]; 15 min p.i.): 0.3 ± 0.2 % I.D./g
- Biodistribution: Kidney ([1]; 15 min p.i.): 5.2 ± 3.3 % I.D./g
- Biodistribution: Liver ([1]; 15 min p.i.): 2.3 ± 0.8 % I.D./g
- Biodistribution: Lung ([1]; 15 min p.i.): 1.8 ± 0.9 % I.D./g
- Biodistribution: Muscle ([1]; 15 min p.i.): 1.1 ± 0.9 % I.D./g
- Biodistribution: Pancreas ([1]; 15 min p.i.): 0.4 ± 0.2 % I.D./g
- Biodistribution: Spleen ([1]; 15 min p.i.): 0.8 ± 0.2 % I.D./g
- Biodistribution: Stomach ([1]; 15 min p.i.): 0.3 ± 0.2 % I.D./g
- Excretion ([1]; 15 min p.i.): 58.3 ± 25.3 % I.D.
- Biodistribution: Blood ([1]; 1 h p.i.): 0.32 ± 0.07 % I.D./g
- Biodistribution: Bone ([1]; 1 h p.i.): 0.12 ± 0.03 % I.D./g
- Biodistribution: Heart ([1]; 1 h p.i.): 0.11 ± 0.02 % I.D./g
- Biodistribution: Intestine ([1]; 1 h p.i.): 0.05 ± 0.01 % I.D./g
- Biodistribution: Kidney ([1]; 1 h p.i.): 1.6 ± 0.3 % I.D./g
- Biodistribution: Liver ([1]; 1 h p.i.): 0.29 ± 0.09 % I.D./g
- Biodistribution: Lung ([1]; 1 h p.i.): 0.29 ± 0.03 % I.D./g
- Biodistribution: Muscle ([1]; 1 h p.i.): 0.08 ± 0.01 % I.D./g
- Biodistribution: Pancreas ([1]; 1 h p.i.): 0.06 ± 0.01 % I.D./g
- Biodistribution: Spleen ([1]; 1 h p.i.): 0.09 ± 0.01 % I.D./g
- Biodistribution: Stomach ([1]; 1 h p.i.): 0.09 ± 0.05 % I.D./g
- Excretion ([1]; 1 h p.i.): 91.8 ± 1.0 % I.D.
- Excretion ([1]; 1 h p.i., listed as [^111In]In-DOTA-Tz): above 90 % I.D.
- Biodistribution: Blood (PC3 xenografts; In Vivo Click reaction: PC3 xenograft mice pretargeted with TCO-PEG4-AR (4 h prior administration)): 0.28 ± 0.09 % I.D./g
- Biodistribution: Bone (PC3 xenografts; [5]): 0.21 ± 0.09 % I.D./g
- Biodistribution: Heart (PC3 xenografts; [5]): 0.12 ± 0.04 % I.D./g
- Biodistribution: Intestine (PC3 xenografts; [5]): 0.12 ± 0.04 % I.D./g
- Biodistribution: Kidney (PC3 xenografts; [5]): 1.5 ± 0.3 % I.D./g
- Biodistribution: Liver (PC3 xenografts; [5]): 0.3 ± 0.1 % I.D./g
- Biodistribution: Lung (PC3 xenografts; [5]): 0.26 ± 0.06 % I.D./g
- Biodistribution: Muscle (PC3 xenografts; [5]): 0.15 ± 0.11 % I.D./g
- Biodistribution: Spleen (PC3 xenografts; [5]): 0.11 ± 0.04 % I.D./g
- Biodistribution: Stomach (PC3 xenografts; [5]): 0.09 ± 0.06 % I.D./g
- Biodistribution: Tumour (PC3 xenografts; [5]): 0.78 ± 0.54 % I.D./g
- Biodistribution: Kidney (PC3 xenografts; [6]): 1.5 % I.D./g
- Biodistribution: Tumour (PC3 xenografts; [6]): 0.78 % I.D./g
- tumor/blood ratio (PC3 xenografts; [7]): 2.8
- tumor/muscle ratio (PC3 xenografts; [7]): 5.2
- log Po/w [4]: −1.60 ± 0.13
Compound: O=C([O-])CN1CCN(CC(=O)[O-])CCN(CC(=O)NCc2ccc(-c3nncnn3)cc2)CCN(CC(=O)[O-])CC1.[111In+3] [[111In]In-DOTA-Tz]
- in vivo stability / metabolization (urine HPLC) [2]: eliminated without undergoing any metabolization or degradation

- stability in PBS [3]: > 85%
- level of degradation in CCM [3]: 70%
- stability in CCM [3]: very good stability
- stability in HS ([3]; 24 h of incubation): almost completely degraded
- compound degraded in HS [3]: 30%
- stability in HS ([3]; up to 2 h of incubation): very good
- Biodistribution: Blood ([1]; 15 min p.i.): 3.2 ± 0.7 % I.D./g
- Biodistribution: Bone ([1]; 15 min p.i.): 1.2 ± 0.2 % I.D./g
- Biodistribution: Heart ([1]; 15 min p.i.): 0.9 ± 0.2 % I.D./g
- Biodistribution: Intestine ([1]; 15 min p.i.): 0.4 ± 0.1 % I.D./g
- Biodistribution: Kidney ([1]; 15 min p.i.): 7.2 ± 0.4 % I.D./g
- Biodistribution: Liver ([1]; 15 min p.i.): 1.6 ± 0.4 % I.D./g
- Biodistribution: Lung ([1]; 15 min p.i.): 1.9 ± 0.4 % I.D./g
- Biodistribution: Muscle ([1]; 15 min p.i.): 0.9 ± 0.2 % I.D./g
- Biodistribution: Pancreas ([1]; 15 min p.i.): 0.6 ± 0.1 % I.D./g
- Biodistribution: Spleen ([1]; 15 min p.i.): 0.6 ± 0.1 % I.D./g
- Biodistribution: Stomach ([1]; 15 min p.i.): 0.6 ± 0.3 % I.D./g
- Excretion ([1]; 15 min p.i.): 62.7 ± 1.5 % I.D.
- Biodistribution: Blood ([1]; 1 h p.i.): 1.1 ± 0.3 % I.D./g
- Biodistribution: Bone ([1]; 1 h p.i.): 0.5 ± 0.1 % I.D./g
- Biodistribution: Heart ([1]; 1 h p.i.): 0.4 ± 0.1 % I.D./g
- Biodistribution: Intestine ([1]; 1 h p.i.): 0.26 ± 0.09 % I.D./g
- Biodistribution: Kidney ([1]; 1 h p.i.): 3.6 ± 1.0 % I.D./g
- Biodistribution: Liver ([1]; 1 h p.i.): 1.0 ± 0.3 % I.D./g
- Biodistribution: Lung ([1]; 1 h p.i.): 0.8 ± 0.2 % I.D./g
- Biodistribution: Muscle ([1]; 1 h p.i.): 0.27 ± 0.07 % I.D./g
- Biodistribution: Pancreas ([1]; 1 h p.i.): 0.3 ± 0.1 % I.D./g
- Biodistribution: Spleen ([1]; 1 h p.i.): 0.3 ± 0.1 % I.D./g
- Biodistribution: Stomach ([1]; 1 h p.i.): 0.3 ± 0.2 % I.D./g
- Excretion ([1]; 1 h p.i.): 81.5 ± 5.1 % I.D.
- Biodistribution: Kidney ([1]; 1 h p.i., listed as [^111In]In-DOTAGA-Tz): 3.6 ± 1 % I.D./g
- log Po/w [4]: −3.44 ± 0.29
- in vivo stability / metabolization (urine HPLC) [2]: overall low degree of metabolization
Compound: O=C([O-])CN1CCN(CC(=O)[O-])CCN(C(CCC(=O)NCc2ccc(-c3nncnn3)cc2)C(=O)[O-])CCN(CC(=O)[O-])CC1.[111In+3] (centres unmarked) [[111In]In-DOTAGA-Tz]
